Results on 17 compounds are retold here after patent US20160272617A1, “SUBSTITUTED PHENYLALANINE DERIVATIVES” (BAYER PHARMA AKTIENGESELLSCHAFT, priority 2013, published 2016).

Structures can show the parent of a compound that is named as a salt.

What is called IC50 is the concentration that inhibits the measured activity by half. Low values mean inhibition by little substance, high ones a need for much substance.

For one assay, the target named is T1, human factor XIa (Homo sapiens, UniProt P03951).
T1 construct: purchased Kordia
Put plainly: Measurement of FXIa inhibition (fluorogenic peptide substrate Boc-Glu(OBzl)-Ala-Arg-AMC). It counts as biochemical. The note with it: factor XIa from Kordia, 15 min preincubation, 30 min at 22° C., fluorescence. A digest of the protocol:
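Released AMC fluorescence (360/460 nm) read after 30 min at 22 °C. The reaction was started with Boc-Glu(OBzl)-Ala-Arg-AMC (10 μM stock) after a 15 min preincubation of the enzyme (0.45 nM stock) with compound (final 50 μM to 0.00013 μM).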

The subject of the next assay is human and animal plasma. Put plainly: Determination of anticoagulatory activity: activated partial thromboplastin time (aPTT) in plasma. Particulars: concentration of test substance which brings about a 1.5-fold extension of the aPTT; plasma species not given. A digest of the protocol: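 Citrated plasma (1:9, 0.11 M citrate; 4000 g, 15 min) from human or animal blood incubated with test compound and cephalin/kaolin PTT reagent for 3 min at 37° C.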

T1 sequence (P03951 388-625 limits assumed): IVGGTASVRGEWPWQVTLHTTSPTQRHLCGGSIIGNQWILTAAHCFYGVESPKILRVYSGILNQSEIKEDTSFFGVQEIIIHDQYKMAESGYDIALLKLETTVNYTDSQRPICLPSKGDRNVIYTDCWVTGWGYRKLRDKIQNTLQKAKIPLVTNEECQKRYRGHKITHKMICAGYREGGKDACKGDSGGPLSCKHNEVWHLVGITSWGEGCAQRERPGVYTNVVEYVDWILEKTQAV
T1 sequence (P03951 19-387 partner limits assumed): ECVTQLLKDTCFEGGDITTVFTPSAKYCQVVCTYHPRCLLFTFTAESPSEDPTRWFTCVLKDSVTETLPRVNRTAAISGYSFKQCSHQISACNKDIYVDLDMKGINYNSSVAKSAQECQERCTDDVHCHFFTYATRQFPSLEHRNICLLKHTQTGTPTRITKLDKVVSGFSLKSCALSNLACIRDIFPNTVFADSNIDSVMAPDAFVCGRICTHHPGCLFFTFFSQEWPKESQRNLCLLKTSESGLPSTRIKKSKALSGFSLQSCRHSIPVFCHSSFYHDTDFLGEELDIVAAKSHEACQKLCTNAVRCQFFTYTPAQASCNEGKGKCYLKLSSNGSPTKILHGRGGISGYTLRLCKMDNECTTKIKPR

On human factor XIa, `Cc1cc(C(=O)N[C@H]2CCNC2)ccc1-c1ccc(C[C@H](NC(=O)[C@H]2CC[C@H](CN)CC2)C(=O)Nc2ccc(-c3nnc(C(F)(F)C(F)(F)C(=O)O)[nH]3)cc2)cc1` [Example 153, 3-[5-(4-{[(2S)-2-({[trans-4-(Aminomethyl)cyclohexyl]carbonyl}amino)-3-{2′-methyl-4′-[(3S)-pyrrolidin-3-ylcarbamoyl]biphenyl-4-yl}propanoyl]amino}phenyl)-4H-1,2,4-triazol-3-yl]-2,2,3,3-tetrafluoropropanoic acid hydrochloride] yielded an IC50 of 1.8 nM. Besides, in the assay with human and animal plasma, the “aPTT” value stood at 0.08 µmol/L.

Regarding `NC[C@H]1CC[C@H](C(=O)N[C@@H](Cc2ccc(-c3ccc(C(=O)NC4CCNCC4)c(Cl)c3)cc2)C(=O)Nc2ccc(-c3nn[nH]n3)cc2)CC1` [Example 122, 4′-[(2S)-2-({[trans-4-(Aminomethyl)cyclohexyl]carbonyl}amino)-3-oxo-3-{[4-(2H-tetrazol-5-yl)phenyl]amino}propyl]-3-chloro-N-(piperidin-4-yl)biphenyl-4-carboxamide hydrochloride], the IC50 against human factor XIa turned out to be 5.2 nM. Further, the “aPTT” value in the assay on human and animal plasma turned out to be 0.16 µmol/L.

As to `NC[C@H]1CC[C@H](C(=O)N[C@@H](Cc2ccc(-c3ccc(C(=O)NC4CCNCC4)cc3)cc2)C(=O)Nc2ccc(-c3nn[nH]n3)cc2)CC1` [Example 37, 4′-[(2S)-2-({[trans-4-(Aminomethyl)cyclohexyl]carbonyl}amino)-3-oxo-3-{[4-(2H-tetrazol-5-yl)phenyl]amino}propyl]-N-(piperidin-4-yl)biphenyl-4-carboxamide hydrochloride], at human factor XIa, the midpoint of inhibition, the IC50, lay at 8.5 nM. Moreover, the “aPTT” value in the assay with human and animal plasma turned out to be 0.12 µmol/L.

The compound `NC[C@H]1CC[C@H](C(=O)N[C@@H](Cc2ccc(-c3ccc(C(=O)NC4CCNCC4)c(C(F)(F)F)c3)cc2)C(=O)Nc2ccc(-c3nn[nH]n3)cc2)CC1` [Example 120, 4′-[(2S)-2-({[trans-4-(Aminomethyl)cyclohexyl]carbonyl}amino)-3-oxo-3-{[4-(2H-tetrazol-5-yl)phenyl]amino}propyl]-N-(piperidin-4-yl)-3-(trifluoromethyl)biphenyl-4-carboxamide hydrochloride] came in with an IC50 on human factor XIa of 6.7 nM. Moreover, the “aPTT” value in the assay on human and animal plasma turned out to be 0.14 µmol/L.

As for `Cc1cc(C(=O)NC2CCCNC2=O)ccc1-c1ccc(C[C@H](NC(=O)[C@H]2CC[C@H](CN)CC2)C(=O)Nc2ccc(-c3nnc(C(F)(F)C(F)(F)C(=O)O)[nH]3)cc2)cc1` (stereo partly drawn) [Example 155, 3-[5-(4-{[(2S)-2-({[trans-4-(Aminomethyl)cyclohexyl]carbonyl}amino)-3-{2′-methyl-4′-[(2-oxopiperidin-3-yl)carbamoyl]biphenyl-4-yl}propanoyl]amino}phenyl)-4H-1,2,4-triazol-3-yl]-2,2,3,3-tetrafluoropropanoic acid hydrochloride], half-maximal inhibition on human factor XIa (IC50) required 1 nM. The “aPTT” value with human and animal plasma was 0.16 µmol/L.

In turn, `CCN(C)C1CCC(NC(=O)c2ccc(-c3ccc(C[C@H](NC(=O)[C@H]4CC[C@H](CN)CC4)C(=O)Nc4ccc(-c5nnn[nH]5)cc4)cc3)c(C)c2)CC1` (stereo partly drawn) [Example 150, 4′-[(2S)-2-({[trans-4-(Aminomethyl)cyclohexyl]carbonyl}amino)-3-oxo-3-{[4-(1H-tetrazol-5-yl)phenyl]amino}propyl]-N-{4-[ethyl(methyl)amino]cyclohexyl}-2-methylbiphenyl-4-carboxamide hydrochloride] returned an IC50 against human factor XIa of 2.5 nM. Moreover, the “aPTT” value with human and animal plasma was 0.07 µmol/L.

Consider `Cc1cc(C(=O)NC2CCNCC2)ccc1-c1ccc(C[C@H](NC(=O)[C@H]2CC[C@H](CN)CC2)C(=O)Nc2ccc(-c3nn[nH]n3)cc2)cc1F` [Example 61, 4′-[(2S)-2-({[trans-4-(Aminomethyl)cyclohexyl]carbonyl}amino)-3-oxo-3-{[4-(2H-tetrazol-5-yl)phenyl]amino}propyl]-2′-fluoro-2-methyl-N-(piperidin-4-yl)biphenyl-4-carboxamide hydrochloride], for which, at human factor XIa, the IC50 came to 3.2 nM. Also, in the assay on human and animal plasma, the “aPTT” value was 0.07 µmol/L.

On to `Cc1cc(C(=O)NC2CCNCC2)ccc1-c1ccc(C[C@H](NC(=O)[C@H]2CC[C@H](CN)CC2)C(=O)Nc2ccc3nc(C(F)(F)F)[nH]c3c2)cc1` [Example 52, 4′-[(2S)-2-({[trans-4-(Aminomethyl)cyclohexyl]carbonyl}amino)-3-oxo-3-{[2-(trifluoromethyl)-1H-benzimidazol-6-yl]amino}propyl]-2-methyl-N-(piperidin-4-yl)biphenyl-4-carboxamide hydrochloride], for which the midpoint of inhibition against human factor XIa, the IC50, lay at 14 nM. Further, the “aPTT” value in the assay on human and animal plasma amounted to 0.2 µmol/L.

With `Cc1cc(C(=O)N[C@H]2CC[C@H](N)CC2)ccc1-c1ccc(C[C@H](NC(=O)[C@H]2CC[C@H](CN)CC2)C(=O)Nc2ccc(-c3nn[nH]n3)cc2)cc1` [Example 34, N-(trans-4-Aminocyclohexyl)-4′-[(2S)-2-({[trans-4-(aminomethyl)cyclohexyl]carbonyl}amino)-3-oxo-3-{[4-(2H-tetrazol-5-yl)phenyl]amino}propyl]-2-methylbiphenyl-4-carboxamide hydrochloride], half-maximal inhibition against human factor XIa (IC50) was put at 1.4 nM. Besides, the “aPTT” value in the assay with human and animal plasma amounted to 0.11 µmol/L.

`Cc1cc(C(=O)NC2CCNCC2)ccc1-c1ccc(C[C@H](NC(=O)[C@H]2CC[C@H](CN)CC2)C(=O)Nc2ccc3[nH]c(C(F)(F)C(F)(F)F)nc3c2)cc1` [Example 57, 4′-[(2S)-2-({[trans-4-(Aminomethyl)cyclohexyl]carbonyl}amino)-3-oxo-3-{[2-(pentafluoroethyl)-1H-benzimidazol-5-yl]amino}propyl]-2-methyl-N-(piperidin-4-yl)biphenyl-4-carboxamide hydrochloride]: on human factor XIa, half-maximal inhibition (IC50) required 8.4 nM. In the assay on human and animal plasma, the “aPTT” value stood at 0.44 µmol/L.

With `Cc1cc(C(=O)N[C@H]2CC[C@H](O)CC2)ccc1-c1ccc(C[C@H](NC(=O)[C@H]2CC[C@H](CN)CC2)C(=O)Nc2ccc(-c3nnc(C(F)(F)C(F)(F)C(=O)O)[nH]3)cc2)cc1` (single isomer, unassigned; enantiomer 1) [Example 104], the midpoint of inhibition against human factor XIa, the IC50, lay at 0.4 nM. For the same compound, the “aPTT” value in the assay on human and animal plasma came to 0.05 µmol/L.

For the compound `COC(=O)C1CCC(NC(=O)c2ccc(-c3ccc(C[C@H](NC(=O)[C@H]4CC[C@H](CN)CC4)C(=O)Nc4ccc(-c5nnn[nH]5)cc4)cc3)c(C)c2)C(=O)N1` (stereo partly drawn) [Example 151, Methyl 5-[({4′-[(2S)-2-({[trans-4-(aminomethyl)cyclohexyl]carbonyl}amino)-3-oxo-3-{[4-(1H-tetrazol-5-yl)phenyl]amino}propyl]-2-methylbiphenyl-4-yl}carbonyl)amino]-6-oxopiperidine-2-carboxylate hydrochloride], the IC50 at human factor XIa is 0.97 nM. Moreover, the “aPTT” value in the assay with human and animal plasma came out at 0.1 µmol/L.

For the compound `Cc1cc(C(=O)NC2CCNCC2)ccc1-c1ccc(C[C@H](NC(=O)[C@H]2CC[C@H](CN)CC2)C(=O)Nc2ccc3nc(-n4cccn4)[nH]c3c2)cc1` [Example 60, 4′-[(2S)-2-({[trans-4-(Aminomethyl)cyclohexyl]carbonyl}amino)-3-oxo-3-{[2-(1H-pyrazol-1-yl)-1H-benzimidazol-6-yl]amino}propyl]-2-methyl-N-(piperidin-4-yl)biphenyl-4-carboxamide hydrochloride], the IC50 against human factor XIa was found to be 45 nM. In addition, the “aPTT” value with human and animal plasma is 0.63 µmol/L.

The compound `Cc1cc(C(=O)N[C@H]2CCNC2=O)ccc1-c1ccc(C[C@H](NC(=O)[C@H]2CC[C@H](CN)CC2)C(=O)Nc2cc(F)c3oc(=O)[nH]c3c2)cc1` [Example 99, 4′-{(2S)-2-({[trans-4-(Aminomethyl)cyclohexyl]carbonyl}amino)-3-[(7-fluoro-2-oxo-2,3-dihydro-1,3-benzoxazol-5-yl)amino]-3-oxopropyl}-2-methyl-N-[(3S)-2-oxopyrrolidin-3-yl]biphenyl-4-carboxamide hydrochloride] showed an IC50 on human factor XIa of 4.7 nM. For the same compound, in the assay with human and animal plasma, the “aPTT” value came out at 0.27 µmol/L.

For the compound `Cc1cc(C(=O)N[C@H]2CCNC2)ccc1-c1ccc(C[C@H](NC(=O)[C@H]2CC[C@H](CN)CC2)C(=O)Nc2ccc(-c3nnc(Cl)[nH]3)cc2)cc1` [Example 83, 4′-[(2S)-2-({[trans-4-(Aminomethyl)cyclohexyl]carbonyl}amino)-3-{[4-(3-chloro-4H-1,2,4-triazol-5-yl)phenyl]amino}-3-oxopropyl]-2-methyl-N-[(3S)-pyrrolidin-3-yl]biphenyl-4-carboxamide hydrochloride], at human factor XIa, the IC50 stood at 2.5 nM. Also, the “aPTT” value with human and animal plasma stood at 0.09 µmol/L.

At human factor XIa, `Cc1cc(C(=O)NC2CCNC(C)C2)ccc1-c1ccc(C[C@H](NC(=O)[C@H]2CC[C@H](CN)CC2)C(=O)Nc2ccc(-c3nn[nH]n3)cc2)cc1` (stereo partly drawn) [Example 32, 4′-[(2S)-2-({[trans-4-(Aminomethyl)cyclohexyl]carbonyl}amino)-3-oxo-3-{[4-(2H-tetrazol-5-yl)phenyl]amino}propyl]-2-methyl-N-(2-methylpiperidin-4-yl)biphenyl-4-carboxamide hydrochloride] showed an IC50 of 3.4 nM. Besides, in the assay on human and animal plasma, the “aPTT” value stood at 0.09 µmol/L.

Take `CN(C)C1CCC(NC(=O)c2ccc(-c3ccc(C[C@H](NC(=O)[C@H]4CC[C@H](CN)CC4)C(=O)Nc4ccc(-c5nc(C(F)(F)C(F)(F)C(=O)O)n[nH]5)cc4)cc3)c(C(F)(F)F)c2)CC1` (stereo partly drawn) [Example 132, 3-{5-[4-({(2S)-2-({[trans-4-(Aminomethyl)cyclohexyl]carbonyl}amino)-3-[4′-{[4-(dimethyl-amino)cyclohexyl]carbamoyl}-2′-(trifluoromethyl)biphenyl-4-yl]propanoyl}amino)phenyl]-1H-1,2,4-triazol-3-yl}-2,2,3,3-tetrafluoropropanoic acid hydrochloride]: at human factor XIa, the IC50 was 1.6 nM. In addition, the “aPTT” value in the assay on human and animal plasma was 0.05 µmol/L.
